In patent US20110306137A1, “METHODS AND COMPOSITIONS FOR MODULATING DIFFERENTIATION OF PLURIPOTENTIAL CELLS” (priority 2007, published 2011):

Experiments:
[1] = system: MASCs; assay: Adipogenic differentiation of MASCs with clustered Jag1/Fc, DAPT, BMP6; type: cell-based, human
Experimental: MASCs were prepared essentially as described in Example 1. Culture in adipogenic differentiation medium was as described in Example 6. Treatment of cells with Anti-Fc and Clustered Jag1/Fc were as described in Example 7. Fixation, staining with Oil Red O and analysis of adipogenic differentiation were as described in Example 6.

[2] = system: MASCs; assay: Osteogenic differentiation of MASCs with Notch activation by clustered Jag1/Fc, with or without DAPT; type: cell-based, human; conditions: for effect on Jagged stimulation of osteogenesis: 5 μM DAPT
Experimental: MASCs (prepared essentially as described in Example 1) were plated at 10^4 cells/well in 96-well plates in […]MEM (Mediatech, Herndon, Va.) supplemented with 10% Fetal Bovine Serum (FBS, HyClone, Logan Utah) and cultured overnight. The next day, cells were transferred to osteogenic differentiation medium (composition described in Example 5).
During the differentiation procedure, certain batches of cells were subjected to Notch activation via the Notch ligand Jagged. A fusion between the extracellular domain of the rat Jagged1 protein and the Fc region of human IgG (Jag1/Fc) was obtained from R&D Systems (Minneapolis, Minn.; Catalogue No. 599-JG), and the lyophilized preparation was reconstituted to a concentration of 1 mg/ml in PBS containing 0.1% (w/v) bovine serum albumin.
The chimeric Jag1/Fc protein was “clustered” by preincubation with a ten-fold weight excess of goat anti-human Fc (Sigma, St. Louis Mo.). Before use, the antibody solution (2 mg/ml) was dialyzed overnight, with three changes, against PBS to remove sodium azide. The volume of antibody solution was not changed by dialysis. For clustering, Jag1/Fc (1 mg/ml in PBS+0.1% BSA) and anti-human Fc (2 mg/ml in PBS) were mixed and incubated at room temperature for 40 min prior to addition to the cell cultures.
(§1) Clustered Jag1/Fc was added to cultures at a final concentration of 5 μg/ml Jag1/Fc and 50 μg/ml antibody. Control cultures received only the antibody. Additional cultures received Jag1/Fc and anti-Fc as above, along with 5 μM N—[N-(3,5-Difluorophenacetyl)-L-alanyl]-S-phenylglycine t-butyl ester (DAPT), a […]-secretase inhibitor. Stock solutions of 2 mM DAPT in DMSO were obtained from Sigma-Aldrich, St. Louis, Mo. […]-secretase is a protease that, upon activation of transmembrane Notch protein by a Notch ligand, cleaves the Notch protein at a site that allows release of the Notch intracellular domain. Certain cultures also included BMP-6 (final concentration 500 ng/ml), as described in Example 5.
(§2) After 10 days in culture, cells were fixed in methanol, stained with Alizarin Red and examined by microscopy as described in Example 5.

[3] = system: DRCs; assay: Osteogenic differentiation of DRCs with DAPT; type: cell-based, human; conditions: presence of BMP6
Experimental: as §1, §2

[4] = system: HES1; assay: RT2 Profiler PCR Array Human Notch Signaling Pathway; type: cell-based; conditions: Jag-activated MASCs compared to MASCs
Experimental: (§3) The expression of a number of genes involved in Notch signaling, and in signaling pathways that interact with the Notch pathway (Wnt, Shh), was compared in DRCs and MASCs, using a commercial array (RT^2 Profiler PCR Array Human Notch Signaling Pathway plate, SA Biosciences No. PAHS-059F). The genes that were analyzed are shown in Table 2 (taken from SA Biosciences online Catalogue). Notch pathway members include genes encoding Notch ligands, enzymes that modify the Notch protein and various transcriptional regulatory proteins that control the expression of the Notch pathway members. Notch pathway targets are genes whose expression is either directly or indirectly regulated by Notch activation. Wnt pathway members are Wnt ligands or proteins that participate in WNT-mediated signaling pathways. The Wnt pathway was investigated because of known crosstalk between the Notch and Wnt signaling pathways, and because it is involved in osteogenic differentiation, which is inhibited in DRCs.
(§4) MASCs and DRCs, prepared and frozen as described in Examples 1-3, were thawed (Example 4), grown for 4-7 days in alpha-MEM/10% FBS/pen-strep, then replated into 10-cm Petri dishes at a concentration of 0.5×10^6 cells/dish, in duplicate. After re-plating, cells were grown for 4 days to allow intracellular levels of endogenous NICD, activated by trypsinization, to return to basal. At the end of this period, culture medium was carefully aspirated, the cells were lysed in 400 μl RLT Buffer (Qiagen, Valencia, Calif.), and the lysate was scraped from the plate.
(§5) As a control, MASCs that had been exposed to clustered soluble Jagged1 protein, to activate the Notch signaling pathway (see Example 7), were also analyzed and compared to MASCs.
(§6) The lysate was homogenized using a QiaShredder (Qiagen, Valencia, Calif.). The homogenate was mixed with ethanol, and the mixture was applied to a RNeasy column (Qiagen, Valencia, Calif.) and processed according to the manufacturer's instructions. The eluate was treated with a DNA-Free™ kit (Ambion, Austin, Tex.), according to the manufacturer's protocol, for elimination of genomic DNA.
(§7) RNA concentration and purity was assayed on Nanodrop spectrophotometer (Thermo Scientific, Wilmington, Del.). […]
(§8) cDNA samples, synthesized as described above, were diluted and added to RT^2 SYBR Green qPCR Master Mix (SA Biosciences) according to the manufacturer's recommendations. […] SYBR green fluorescence, normalized to controls also present on the array, is used a s a measure of mRNA level.
(§9) Results were analyzed using analysis tools provided by SA Biosciences, assigning results from MASCs to the “Control” field and DRC results to the “Test” field, to obtain figures for relative changes in expression for the genes assayed. […]

[5] = system: CCND1; assay: as above; type: cell-based; conditions: Jag-activated MASCs compared to MASCs; two-fold criteria
Experimental: as §3, §4, §5, §6, §7, §8, §9

[6] = system: HR; assay: as above; type: cell-based; conditions: Jag-activated MASCs compared to MASCs
Experimental: as §3, §4, §5, §6, §7, §8, §9

[7] = system: WISP1; assay: as above; type: cell-based; conditions: Jag-activated MASCs compared to MASCs
Experimental: as §3, §4, §5, §6, §7, §8, §9

[8] = system: genes involved in Notch signaling; assay: RT2 Profiler PCR Array Human Notch Signaling Pathway, number of genes altered; type: cell-based; conditions: Jag-activated MASCs compared to MASCs; 84 genes tested
Experimental: as §3, with “Wnt pathway members are Wnt ligands or proteins that participate in WNT-mediated signaling pathways. The Wnt pathway was investigated because of known crosstalk between the Notch and Wnt signaling pathways, and because it is involved in osteogenic differentiation, which is inhibited in DRCs.” left out
As a control, MASCs that had been exposed to clustered soluble Jagged1 protein, to activate the Notch signaling pathway (see Example 7), were also analyzed and compared to MASCs. […]
as §8, §9

[9] = system: osteogenic differentiation; assay: Osteogenic differentiation potential assay (Alizarin Red staining); type: cell-based, human; conditions: BMP-6 500 ng/ml; MASCs, DRCs, mock DRCs
Experimental: For assay of osteogenic differentiation potential, cells (MASCs, DRCs or mock DRCs) were plated at 10^4 cells/well in 96-well plates in […]MEM (Mediatech, Herndon, Va.) supplemented with 10% Fetal Bovine Serum (FBS, HyClone, Logan Utah) and cultured overnight.
The next day, the culture medium was replaced with DMEM (Mediatech, Herndon, Va.) containing high glucose, pyruvate, glutamine and 10% FBS supplemented with 50 μg/ml Ascorbic acid (L-ascorbic acid 2-phosphate, Wako Chemical, Ltd., Japan, added freshly before use), 10 mM β-glycerophosphate (Sigma-Aldrich, St. Louis, Mo.), and 100 nM Dexamethasone (Sigma-Aldrich, St. Louis, Mo.). This “osteogenic differentiation medium” was changed every 3-4 days.
Osteogenic differentiation assays were conducted in the absence or presence of recombinant human bone morphogenetic protein 6 (BMP-6; R&D Systems, Minneapolis, Minn.), at a concentration of 500 ng/ml.
On day 14 or 17 after the transfer of cells into osteogenic differentiation medium, cultures were assayed for the presence of osteocytes by Alizarin Red staining. Cells were fixed by adding 100% methanol to the wells and incubating on ice for 3 min. The wells were then rinsed with water, and 40 mM alizarin red S (Sigma-Aldrich, St. Louis, Mo.), pH 4.2 was added. […]

[10] = system: adipogenic differentiation; assay: Adipogenic differentiation potential assay (Oil Red O staining); type: cell-based, human; conditions: BMP-6 100 ng/ml; day 17-21
Experimental: For assay of adipogenic differentiation potential, cells were plated at 10^4 cells/well in 96-well plates in […]MEM (Mediatech, Herndon, Va.) supplemented with 10% Fetal Bovine Serum (FBS, HyClone, Logan Utah) and cultured overnight.
The next day, the culture medium was replaced with DMEM (Mediatech, Herndon, Va.) containing high glucose, pyruvate, glutamine and 10% FBS supplemented with 1 μM Dexamethasone, […] 1-methyl-3 isobutylxanthine, 100 μM indomethacin and 10 μg/ml insulin (all supplements from Sigma-Aldrich, St. Louis, Mo.). This “adipogenic differentiation medium” was changed every 3-4 days.
Adipogenic differentiation assays were conducted in the absence or presence of recombinant human bone morphogenetic protein 6 (BMP-6; R&D Systems, Minneapolis, Minn.) at a concentration of 100 ng/ml.
On day 17-21 after transfer of cells into adipogenic differentiation medium, cells were tested for adipocytic differentiation by staining with Oil Red O. Cells were fixed by adding 10% formalin to the wells and incubating for 30-60 min at room temperature. Wells were then washed with 60% isopropanol and allowed to dry completely. Oil Red O working solution was freshly prepared from Oil Red stock solution (3.5 mg/ml in isopropanol) by diluting it 3:2 in water and filtering. Staining was conducted for 10 min; and the wells were then washed extensively with water. […]

## C[C@H](NC(=O)Cc1cc(F)cc(F)c1)C(=O)N[C@H](C(=O)OC(C)(C)C)c1ccccc1 [DAPT, N—[N-(3,5-Difluorophenacetyl)-L-alanyl]-S-phenylglycine t-butyl ester]
[1]; DAPT with BMP6
  effect on stimulation of adipogenesis by BMP6: enhanced further
[1]; DAPT, no BMP6
  effect on adipogenesis of MASCs: slightly enhanced adipogenesis
[2]; absence of BMP6
  effect on Jagged stimulation of osteogenesis: completely reversed
[2]; presence of BMP6 500 ng/ml
  effect on Jagged stimulation of osteogenesis: strongly reduced
[3]
  effect on osteogenic potential exhibited by DRCs: reduced

## Jag1/Fc: fusion between the extracellular domain of the rat Jagged1 protein and the Fc region of human IgG, clustered with goat anti-human Fc
[1]; Jag with BMP6
  effect on BMP6-enhanced adipogenesis of MASCs: reversed
[1]; Jag with BMP6 and DAPT
  effect on adipogenesis of MASCs: no effect
[1]; clustered Jag1/Fc, absence of DAPT or BMP6
  effect on adipogenesis of MASCs: blocked
[4]
  expression of Hes1: up-regulated
[5]
  expression of CCND1 (cyclin D1): not altered
[6]
  expression of HR: up-regulated
[7]
  expression of Wisp1: up-regulated
[8]
  number of genes with activated expression (two-fold or more): 18 genes
  number of genes with reduced expression (50% or less): three
[2]; additional experiments
  dose dependence of stimulation of osteogenesis: dose-dependent
[2]; clustered Jag1/Fc 5 μg/ml, absence or presence of BMP6, 10 days
  effect on osteogenesis of MASCs (Alizarin Red): osteogenesis was strongly enhanced

B1: BMP-6: recombinant human bone morphogenetic protein 6 (protein, UniProt P22004 375-513, looked up)
Bone morphogenetic protein 6: SASSRRRQQSRNRSTQSQDVARVSSASDYNSSELKTACRKHELYVSFQDLGWQDWIIAPKGYAANYCDGECSFPLNAHMNATNHAIVQTLVHLMNPEYVPKPCCAPTKLNAISVLYFDDNSNVILKKYRNMVVRACGCH
[1]; BMP6 in the differentiation medium
  effect on adipogenesis of MASCs: strongly enhanced adipogenesis
[9]
  effect of BMP-6 on degree of osteogenic differentiation: increased the degree of osteogenic differentiation
[10]
  effect of BMP-6 on adipocytic differentiation of MASCs: enhanced
